Experimental data as given in patent publication US20240408114A1, “METHODS FOR PREVENTING AND TREATING ACUTE KIDNEY INJURY” (The Johns Hopkins University, priority 2021, published 2024).

Legend:
kidney T cells = assay: In vitro kidney T cell proliferation (CFSE) under hypoxia/reoxygenation; format: cell-based, mouse; conditions: 1 μM JHU083, hypoxia followed by reoxygenation
Experimental: Glutamine blocking effect on the kidney T cell proliferation was assessed with carboxyfluoroscein succinimidyl ester (CFSE) analysis. FACS sorted kidney T cells (CD45^+, TCR αβ^+) were cultured with media containing 1 μM JHU083 or vehicle and underwent hypoxia followed by reoxygenation.
(§1) Kidney T cells were isolated using FACS. Briefly, single-cell suspension of KMNCs was preincubated with anti-CD16/CD32 Fc block (S17011E, BioLegend) stained in Cell Staining Buffer (BioLegend) with fluorochrome-labeled antibodies: APC-Cy7 anti-CD45 (30-F11) and BV421 anti-TCRβ ([…]) from BioLegend. Live Dead Aqua (Thermo Fisher Scientific) was stained for viability assay. […] TCRβ^+ cells were sorted with FACSAria II Cell Sorter (BD Bioscience). Splenic T cells were isolated from single cells suspension of spleens using a T Cell Isolation Kit II (Miltenyi Biotec, North Rhine-Westphalia, Germany) according to the manufacturer's guideline.
48-well flat-bottom plates were coated with 5-μg/mL anti-CD3 in PBS and incubated at 4° C. overnight. Anti-CD3 coated plates were washed with PBS, and isolated cells were cultured in RPMI 1640 GlutaMAX (Thermo Fisher Scientific) supplemented with 10% FBS (Thermo Fisher Scientific), […] HEPES buffer (Thermo Fisher Scientific), 100-μM non-essential amino acid solution (Sigma-Aldrich), and 55-μM 2-mercaptoethanol (Sigma-Aldrich)±JHU083. […]

splenic T cells [1] = assay: Splenic T cell phenotypes in post-IRI mice; format: in vivo, mouse; conditions: vs vehicle
Experimental: T cell proliferation assessed with Ki67 expression was reduced in CD4^+ and CD8^+ T cells from JHU083 treated post-ischemic kidneys (Ki67^+, CD4^+ T cells 58.7±2.9 vs 50.6±2.1%, P=0.035; CD8^+ T cells, 61.2±4.2% vs 48.4±4.1%, P=0.043) (FIG. 15). […] We also studied immunophenotypes of splenic T cells from post-IRI mice.
KMNCs were isolated according to our previously described Percoll density gradient protocol. Ascon et al., 2006. Briefly, decapsulated kidneys were immersed and incubated in collagenase D (2 mg/mL; Sigma-Aldrich) solution for 30 min at 37° C. Samples were strained through 70 µm cell strainer (BD Bioscience, Franklin Lakes, NJ), washed, and resuspended in 40% Percoll (GE Healthcare, Chicago, IL) followed by gentle overlaying onto 80% Percoll. After centrifugation at 1,500 g for 30 min in brake off mode at room temperature, KMNCs were collected from interface between 40% and 80% Percoll. […] Cells were counted on hemocytometer using trypan blue exclusion under a microscope.
Cells were washed once with phosphate buffered saline (PBS) and stained with viability dye Zombie NIR Fixable Viability (BioLegend, San Diego, CA) for 15 min at room temperature. […] Samples were analyzed by 4-laser Aurora spectral flow cytometer (Cytek, Fremont, CA). […]

splenic T cells [2] = assay: In vitro hypoxia/reoxygenation of CD3/CD28 stimulated splenic T cells; format: cell-based, mouse
Experimental: In vitro studies were performed to evaluate the effect of glutamine blockade on activated T cells under hypoxia followed by reoxygenation. Splenic T cells (CD45^+, TCR αβ^+) were isolated and cultured using media containing 0.25 μM, 0.5 μM, or 1 μM of JHU083 or vehicle. After 24 h from the culture under CD3/CD28 stimulation, cells were exposed to hypoxia for 24 h followed by reoxygenation.
as §1
48-well flat-bottom plates were coated with 5-μg/mL anti-CD3 in PBS and incubated at 4° C. overnight. […]

CCOC(=O)[C@H](CCC(=O)C=[N+]=[N-])NC(=O)[C@@H](N)CC(C)C [JHU083]
cell numbers on day 3 (kidney T cells): significantly lower
proportion of undivided cells (CFSE) (kidney T cells; P<0.001): significantly higher proportion of undivided cells
immunophenotypes of splenic CD4+ and CD8+ T cells (splenic T cells [1]): increased naïve phenotypes with low CD44 and high CD62L expression
expression of activation and proliferation markers (CD44, CD69, CD25, Ki67) (splenic T cells [2]; 0.25 μM, 0.5 μM, or 1 μM JHU083, 24 h hypoxia followed by reoxygenation, dose-dependent, vs vehicle): reduced expression of activation and proliferation markers
metabolic profiles of treated T cells (splenic T cells [2]; CD3/CD28 stimulation, hypoxia/reoxygenation, FIG. 18B): exhibited unstimulated T cell phenotypes
